From US9365551B2, “2-(benzyloxy) benzamides as LRRK2 kinase inhibitors” (Glaxo Group Limited, priority 2010, dated 2016) come the findings set out here.

For assay [1], the target named is T1, 6His-Tev-LRRK2 (1326-2527) (Homo sapiens, UniProt Q5S007).
T1 construct: A LRRK2 cDNA encoding residues 1326-2527 was received from Dundee University; made in house; host or cells: Spodoptera frugiperda (Sf9) insect cells, baculovirus (pFB-HTb)
T1 sequence (Q5S007 1326-2527): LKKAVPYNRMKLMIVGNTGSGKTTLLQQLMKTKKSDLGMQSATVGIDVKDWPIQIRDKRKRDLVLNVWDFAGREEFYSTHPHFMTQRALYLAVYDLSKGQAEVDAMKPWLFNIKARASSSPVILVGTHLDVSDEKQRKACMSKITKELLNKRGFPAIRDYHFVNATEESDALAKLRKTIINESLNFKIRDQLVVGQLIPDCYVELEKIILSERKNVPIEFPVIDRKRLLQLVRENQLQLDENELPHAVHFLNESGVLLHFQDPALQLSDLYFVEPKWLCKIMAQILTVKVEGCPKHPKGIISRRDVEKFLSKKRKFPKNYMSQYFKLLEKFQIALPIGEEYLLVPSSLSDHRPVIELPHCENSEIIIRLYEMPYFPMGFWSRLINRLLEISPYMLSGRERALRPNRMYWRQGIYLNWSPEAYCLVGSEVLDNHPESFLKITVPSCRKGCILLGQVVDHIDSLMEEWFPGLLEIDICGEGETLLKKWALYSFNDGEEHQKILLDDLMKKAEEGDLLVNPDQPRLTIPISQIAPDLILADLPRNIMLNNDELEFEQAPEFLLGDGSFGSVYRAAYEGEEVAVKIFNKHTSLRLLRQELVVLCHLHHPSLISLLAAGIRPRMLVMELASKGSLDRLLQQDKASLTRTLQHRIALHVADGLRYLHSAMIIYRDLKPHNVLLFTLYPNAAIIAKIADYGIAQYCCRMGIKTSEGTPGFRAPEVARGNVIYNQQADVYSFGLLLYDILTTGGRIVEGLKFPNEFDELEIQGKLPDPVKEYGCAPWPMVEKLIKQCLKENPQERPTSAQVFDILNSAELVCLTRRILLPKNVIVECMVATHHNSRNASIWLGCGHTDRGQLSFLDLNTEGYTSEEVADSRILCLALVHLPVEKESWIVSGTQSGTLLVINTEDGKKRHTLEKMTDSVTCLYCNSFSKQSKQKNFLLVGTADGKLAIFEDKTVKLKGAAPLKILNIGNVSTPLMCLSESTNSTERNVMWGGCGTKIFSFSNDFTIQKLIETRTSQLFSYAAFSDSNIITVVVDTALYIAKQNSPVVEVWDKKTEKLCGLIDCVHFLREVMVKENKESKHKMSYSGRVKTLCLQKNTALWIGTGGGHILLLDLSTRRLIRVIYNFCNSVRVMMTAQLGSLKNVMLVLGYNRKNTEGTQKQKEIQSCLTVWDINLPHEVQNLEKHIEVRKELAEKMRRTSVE
Nature of the assay: LRRK2 AlphaScreen desensitised protein substrate assay. The assay is classed as biochemical. The note with it: mean pIC50 of multiple test results. As to the method: (§1) Compounds of formula (I) may be tested for in vitro kinase activity in accordance with the following assays, using the non natural, in vitro, substrates moesin and the Longer Biotin-LRRKtide. Moesin and a shorter version of the peptide were identified as substrates in Jaleel et al. (2007, Biochem J, 405: 307-317).
(§2) b) 3 μl enzyme solution (80 nM purified recombinant 6His-Tev-LRRK2 (1326-2527) in assay buffer: 50 mM Hepes (pH 7.2), 10 mM MgCl2, 150 mM NaCl, 5% glycerol, 0.0025% triton X-100 and 1 mM DTT) is added to certain wells. 3 μl assay buffer is added to certain wells as a 100% inhibition (no enzyme) control. c) After incubation at room temperature for 30 minutes, 3 μl substrate solution (2 μM Biotin-LRRKtide peptide substrate and ATP at Km in assay buffer) is added to each well. Plates are then incubated for a further 1-2 hours at room temperature (incubation time varies depending upon rate and linearity of reaction with differing enzyme batches). d) 6 μl detection solution (50 nM Streptavidin SureLight® APC (PerkinElmer), 4 nM Eu-W1024 labelled anti-rabbit IgG antibody (PerkinElmer), 1:500 dilution (dilution determined on a batch to batch basis) of Phospho-Ezrin (Thr567)/Radixin (Thr564)/Moesin (Thr558) Polyclonal Antibody (New England Biolabs) and 60 mM EDTA in buffer: 40 mM Hepes (pH 7.2), 150 mM NaCl, 0.03% BSA) is added to each well. Plates are then incubated for a further 2 hours at room temperature before reading on a suitable plate reader (Excitation 330 nm, emission 620 nm (Eu) and 665 nm (APC)). Data is analysed using ActivityBase software (IDBS). LRRK2 AlphaScreen Desensitised Protein Substrate Assay a) 100 nl of a 1:4 serial dilution of test compound with a top final assay concentration of 30 μM is added to certain wells in a low volume 384 well black plate. 100 nl of DMSO is used in certain wells as controls. b) 3 μl enzyme solution (80 nM purified recombinant 6His-Tev-LRRK2 (1326-2527) in assay buffer: 50 mM Hepes (pH 7.2), 10 mM MgCl2, 150 mM NaCl, 5% glycerol, 0.0025% triton X-100 and 1 mM DTT) is added to certain wells. 3 μl assay buffer is added to certain wells as a 100% inhibition (no enzyme) control. c) After incubation at room temperature for 30 minutes, 3 μl substrate solution (200 nM GST-PS-Moesin (400-577) and 2 mM ATP in assay buffer) is added to each well. Plates are then incubated for 20 minutes at room temperature. d) 6 μl detection solution (1:250 dilution of AlphaLisa Protein A Acceptor beads (PerkinElmer), 1:64 dilution of AlphaLisa Gluthathione Donor beads (PerkinElmer) and 1:600 dilution (dilution determined on a batch to batch basis) of Phospho-Ezrin (Thr567)/Radixin (Thr564)/Moesin (Thr558) Polyclonal Antibody (New England Biolabs) in a buffer: 50 mM Hepes (pH 7.5), 250 mM NaCl, 60 mM EDTA, 1% PEG and 0.01% Brij 35) is added to each well. Plates are then incubated for a further 2 hours at room temperature in the dark before reading on an EnVision™ plate reader with AlphaScreen HTS turbo option module and AlphaScreen settings. Data is analysed using ActivityBase software (IDBS). Pharmacological Data

Assay [2] has as its target T1, 6His-Tev-LRRK2 (1326-2527). Description: LRRK2 peptide substrate assay. The assay is classed as biochemical. The settings on record: mean pIC50 of multiple test results. As to the method: as §1
LRRK2 Peptide Substrate Assay
a) 100 nl of a 1:4 serial dilution of test compound with a top final assay concentration of 30 μM is added to certain wells in a low volume 384 well black plate. 100 nl of DMSO is used in certain wells as controls.
as §2

[3] abbreviates: stated as threshold, read-out: pIC50 in the LRRK2 alphascreen desensitised protein substrate assay (bounds) (converted).
The mark [4] stands for this setting: stated as threshold, read-out: pIC50 in the LRRK2 peptide substrate assay (bounds) (converted).
The mark [5] stands for this setting: GST-PS-Moesin (400-577) substrate, 2 mM ATP, read-out: LRRK2 alphascreen desensitized protein substrate assay (pIC50) (converted).
The mark [6] stands for this setting: Biotin-LRRKtide peptide substrate, ATP at Km, read-out: LRRK2 peptide substrate assay (pIC50) (converted).

With `Cn1cc(-c2cc(OCc3ccc(F)cc3)c(C(=O)Nc3ccnnc3)cc2CN2CCOCC2)cn1` [Example 14, 2-{[(4-Fluorophenyl)methyl]oxy}-4-(1-methyl-1H-pyrazol-4-yl)-5-(4-morpholinylmethyl)-N-4-pyridazinylbenzamide], the IC50 was not above 25100 nM in assay [1] (setting [3]) and not above 1260 nM in assay [2] (setting [4]).

Take `Cn1cc(-c2cc(C(=O)Nc3cccnc3)c(OCc3ccc(F)cc3)cc2CN2CCOCC2)cn1` [Example 17, 2-{[(4-Fluorophenyl)methyl]oxy}-5-(1-methyl-1H-pyrazol-4-yl)-4-(4-morpholinylmethyl)-N-3-pyridinylbenzamide]: the IC50 in assay [1] (setting [5]) was 158 nM; in assay [1] (setting [3]) it was not above 316 nM; in assay [2] (setting [6]) it was 50.1 nM; in assay [2] (setting [4]) it was not above 100 nM.

`Cc1nocc1NC(=O)c1cc(-c2cnn(C)c2)c(CN2CCOCC2)cc1OCc1ccc(F)cc1` [Example 18, 2-{[(4-Fluorophenyl)methyl]oxy}-N-(3-methyl-4-isoxazolyl)-5-(1-methyl-1H-pyrazol-4-yl)-4-(4-morpholinylmethyl)benzamide]: the IC50 in assay [1] (setting [5]) is 398 nM; in assay [1] (setting [3]), not above 25100 nM; in assay [2] (setting [6]) it was 12.6 nM; in assay [2] (setting [4]), not above 100 nM.

As to `Cn1cc(-c2cc(C(=O)Nc3cccnc3)c(OCc3ccc(F)cc3F)cc2CN2CCOCC2)cn1` [Example 20, 2-{[(2,4-Difluorophenyl)methyl]oxy}-5-(1-methyl-1H-pyrazol-4-yl)-4-(4-morpholinylmethyl)-N-3-pyridinylbenzamide], the IC50 in assay [1] (setting [5]) is 200 nM; in assay [1] (setting [3]) it was not above 316 nM; in assay [2] (setting [6]), 63.1 nM; in assay [2] (setting [4]), not above 100 nM.

On to `Cc1nocc1NC(=O)c1cc(-c2cnn(C)c2)c(CN2CCOCC2)cc1OCc1ccc(F)cc1F` [Example 22, 2-{[(2,4-Difluorophenyl)methyl]oxy}-N-(3-methyl-4-isoxazolyl)-5-(1-methyl-1H-pyrazol-4-yl)-4-(4-morpholinylmethyl)benzamide], for which the IC50 in assay [1] (setting [3]) is not above 25100 nM; in assay [2] (setting [4]), more than 25100 nM.

As for `Cn1cc(-c2cc(C(=O)Nc3cccnc3)c(OCc3ccccc3)cc2C(=O)N2CCOCC2)cn1` [Example 23, 5-(1-Methyl-1H-pyrazol-4-yl)-4-(4-morpholinylcarbonyl)-2-[(phenylmethyl)oxy]-N-3-pyridinylbenzamide], the IC50 is 200 nM in assay [1] (setting [5]), not above 316 nM in assay [1] (setting [3]), 12.6 nM in assay [2] (setting [6]) and not above 100 nM in assay [2] (setting [4]).

As to `Cn1cc(-c2cc(C(=O)Nc3ccnnc3)c(OCc3ccccc3)cc2C(=O)N2CCOCC2)cn1` [Example 24, 5-(1-Methyl-1H-pyrazol-4-yl)-4-(4-morpholinylcarbonyl)-2-[(phenylmethyl)oxy]-N-4-pyridazinylbenzamide], the IC50 in assay [1] (setting [3]) was not above 25100 nM; in assay [2] (setting [4]), not above 1260 nM.

Regarding `Cc1nocc1NC(=O)c1cc(-c2cnn(C)c2)c(C(=O)N2CCOCC2)cc1OCc1ccccc1` [Example 25, N-(3-Methyl-4-isoxazolyl)-5-(1-methyl-1H-pyrazol-4-yl)-4-(4-morpholinylcarbonyl)-2-[(phenylmethyl)oxy]benzamide], the IC50 in assay [1] (setting [3]) is not above 25100 nM; in assay [2] (setting [4]) it was not above 100 nM.

On to `Cn1cc(-c2cc(C(=O)Nc3cccnc3)c(OCc3ccc(F)cc3)cc2C(=O)N2CCOCC2)cn1` [Example 26, 2-{[(4-Fluorophenyl)methyl]oxy}-5-(1-methyl-1H-pyrazol-4-yl)-4-(4-morpholinylcarbonyl)-N-3-pyridinylbenzamide], for which the IC50 was not above 316 nM in assay [1] (setting [3]) and not above 100 nM in assay [2] (setting [4]).

For `Cn1cc(-c2cc(C(=O)Nc3ccnnc3)c(OCc3ccc(F)cc3)cc2C(=O)N2CCOCC2)cn1` [Example 27, 2-{[(4-Fluorophenyl)methyl]oxy}-5-(1-methyl-1H-pyrazol-4-yl)-4-(4-morpholinylcarbonyl)-N-4-pyridazinylbenzamide], the IC50 in assay [1] (setting [5]) is 1580 nM; in assay [1] (setting [3]) it was not above 25100 nM; in assay [2] (setting [6]), 50.1 nM; in assay [2] (setting [4]), not above 100 nM.

As to `Cn1cc(-c2cc(OCc3ccc(F)cc3)c(C(=O)Nc3cccnc3)cc2C(=O)N2CCOCC2)cn1` [Example 28, 2-{[(4-Fluorophenyl)methyl]oxy}-4-(1-methyl-1H-pyrazol-4-yl)-5-(4-morpholinylcarbonyl)-N-3-pyridinylbenzamide], the results for the IC50 in assay [1] (setting [3]) and in assay [2] (setting [4]) were not above 25100 nM and not above 1260 nM, respectively.

For the compound `Cn1cc(-c2cc(C(=O)Nc3cccnc3)c(OCc3ccccc3)cc2C(=O)N2CCCCC2)cn1` [Example 31, 5-(1-Methyl-1H-pyrazol-4-yl)-2-[(phenylmethyl)oxy]-4-(1-piperidinylcarbonyl)-N-3-pyridinylbenzamide], the IC50 is 50.1 nM in assay [1] (setting [5]), not above 316 nM in assay [1] (setting [3]), 6.31 nM in assay [2] (setting [6]) and not above 10 nM in assay [2] (setting [4]).

Turning to `CN(C)C(=O)c1cc(OCc2ccccc2)c(C(=O)Nc2cccnc2)cc1-c1cnn(C)c1` [Example 32], the IC50 in assay [1] (setting [5]) is 200 nM; in assay [1] (setting [3]), not above 316 nM; in assay [2] (setting [6]), 50.1 nM; in assay [2] (setting [4]) it was not above 100 nM.

Turning to `O=C(Nc1cccnc1)c1cc(C(F)(F)F)c(CN2CCOCC2)cc1OCc1ccccc1` [Example 33, 2-(Benzyloxy)-4-(morpholinomethyl)-N-(pyridin-3-yl)-5-(trifluoromethyl)benzamide], the IC50 in assay [1] (setting [3]) was not above 316 nM; in assay [2] (setting [4]) it was not above 100 nM.
